Experimental data from a melting point compilation (Tetko et al.; mined from patent text by program, amines drawn as free bases though some values may be those of a salt).

| SMILES | melting point |
| --- | --- |
| CN1C(=S)N(c2ccc(C#N)c(C(F)(F)F)c2)C(=N)C1(C)C | 173 to 174 °C |
| CC(C)C=CC1(C(F)(F)F)OCC(=O)Nc2ccc(Cl)cc21 (stereo not drawn) | 148 to 149 °C |
| CCCCCCCCCCCCCCCCOCC(CO)OCOC(C)=O (stereo not drawn) | 44 °C |
| FC(F)(F)Oc1ccc(-n2ccc(CBr)n2)cc1 | 71 to 73 °C |
| CCS(=O)(=O)N(c1cc(-c2nsc(C(F)(F)F)c2Cl)c(Cl)cc1Cl)S(=O)(=O)CC | 153 to 154 °C |
| Cc1ccnc2[nH]c(=O)c(CC(=O)N(CCNC(=O)OC(C)(C)C)CC(=O)O)cc12 | 133 to 136 °C |
| O=c1[nH]c2cc3[nH]c(=O)oc3cc2[nH]1 | > 360 °C |
| Cc1c(NC(=O)CC(C)(C)C)c(C)c2c(c1C(C)O)OCC2c1ccc(C(C)C)cc1 (stereo not drawn) | 156 to 157 °C |
| COC(=O)c1sccc1S(=O)(=O)NC(=O)Nc1nc(OC)c2cc(C)oc2n1 | 194 to 196 °C |
| COc1ccc2c(c1OC(C)=O)NC(OC)C1CCCN1C2=O (stereo not drawn) | 143 to 145 °C |
| CCCn1cnc(C(N)=O)c1N | 241 to 243 °C |
| O=C(O)C1CCC2CCCCC2N1 (stereo not drawn) | 173 to 176 °C |
| Cc1c(C(=O)O)nc2c(=O)[nH]c3cc(S(C)(=O)=O)ccc3n12 | 228 °C |
| CC(=O)NC1CCc2[nH]c3ccccc3c2C1 (stereo not drawn) | 170 °C |
| CCOC(=O)/C=C/c1cn(C)c2ccccc12 | 94 to 98 °C |
| CC1(C)CC(N2CCCC2)=CC(=C(C#N)S(C)(=O)=O)C1 | 260 to 261 °C |
| Cc1ccc2c(c1)Oc1cscc1C(=O)N2 | 209 to 216 °C |
| CN(C)c1ccc(-c2nnc(N(C)C)nc2-c2ccc(N(C)C)cc2)cc1 | 170 to 172 °C |
| CC(=NC#N)N[C@@H]1c2cc(C#N)ccc2OC(C)(C)[C@H]1OS(C)(=O)=O (relative stereo) | 202 to 204 °C |
| CCC(CC)(COc1cc(C)c2nc(C)nn2n1)CS(N)(=O)=O | 159 to 160 °C |
| COc1cc(OC)c(C(C)=O)c(O)c1C | 143 to 144 °C |
| CCCCCCCCCCCc1nnc2n1-c1ccccc1C(c1ccc(Cl)cc1)NC2 (stereo not drawn) | 94 to 95 °C |
| CCC1(O)OCc2c1ccnc2OC (stereo not drawn) | 145 °C |
| COC(=O)c1nn(-c2ccc(CBr)cc2)nc1C | 122 to 125 °C |

| SMILES | melting point |
| --- | --- |
| ClCCCOc1cc(Cl)c(OCCCCl)cc1Cl | 162 °C |
| Cn1c(=O)c(C#N)c(N2CCNCC2)c2cc(Cl)ccc21 | 223 °C |
| CNC(=S)C1=C(O)C(COC)(COC)Oc2ccc([N+](=O)[O-])cc21 | 97 to 101 °C |
| Cn1c(C(F)(F)F)cc(=O)n(-c2cc(OCN3C(=O)CCC3=O)c(Cl)cc2F)c1=O | 212 to 214 °C |
| Cc1nc2ccc3c(c2s1)C(=CC#N)CC3 | 194 to 195 °C |
| CCCN1C[C@H]2CCc3cccc(O)c3[C@H]2C1 (relative stereo) | 180 to 184 °C |
| Brc1ccc(C=Cc2cccc3ccccc23)cc1 | 106 °C |
| COc1cc(Oc2cccc3c2NC(=O)C3)cc(OC)c1OC | 170 to 171 °C |
| CC(=O)SCC(CC(C)C)C(=O)NC(C)C(=O)O (stereo not drawn) | 157 to 167 °C |
| Cc1cc2c(-c3ccccc3C)c(C#N)n(C)c(=O)c2cc1C | 217 to 218 °C |
| Cc1oc2nc(C(=O)O)nc(OCCN(C)C)c2c1C | 179 to 180 °C |
| Cc1nc(C(O)(c2ccsc2)C(F)(F)F)sc1C (stereo not drawn) | 90 to 92 °C |
| CCOC(=O)c1ncn2c3ccccc3c(=O)n(C)c12 | 211 to 212 °C |
| CCOC(=O)C1CC(=O)c2c(OC)ccc(OC)c2C1 (stereo not drawn) | 96 to 98 °C |
| Cn1nc(O)cc1C(F)(F)C(F)(F)F | 119 to 124 °C |
| CC(C)P1(=O)c2ccccc2CN1C(C)(C)C (stereo not drawn) | 67 to 70 °C |
| CCN(CC)CC1CCCCN1CC(=O)N1c2ccccc2NC(=O)c2csc(C)c21 (stereo not drawn) | 147 to 149 °C |
| COCC#CC1=CC(C)(C)Oc2c(OC)cc(Cc3cnc(N)nc3N)cc21 | 236 to 237 °C |
| COC(=O)c1cnc(F)cn1 | 55.6 to 56.7 °C |
| CCOC(=O)Cn1c2cccccc-2c(C#N)c1=O | 149 to 151 °C |
| CCCCOc1nc(N)c2nc(Br)n(C3CCCCO3)c2n1 (stereo not drawn) | 148 to 150 °C |
| O=C1CN2CCC(CC2)N1 | 121 to 122 °C |
| CC1(C(=O)O)CCCc2cc(C3CCCCC3)c(Cl)cc21 (stereo not drawn) | 167 to 168 °C |
| CCC(C(=O)N(C)C)n1cc(C)c(-c2ccccc2OC)n1 (stereo not drawn) | 79 to 81 °C |

The remaining lines, values ahead:

| melting point | SMILES |
| --- | --- |
| 206 °C | Cc1cc(-c2ccc(Cl)c(Cl)c2)nc(-c2cccc(-c3cccc(S(N)(=O)=O)c3)c2)n1 |
| 110 °C | COc1ccc2nccc(CCCC3CCCNC3)c2c1 (stereo not drawn) |
| 158 to 184 °C | O=C(Nc1ccc(C(=O)N2Cc3ccccc3Nc3ccccc32)c(Cl)c1)c1ccccc1-c1ccccc1 |
| 117 to 118 °C | CCC(O)(CC)c1ccc(-c2cccc(OCc3ccc(CO)c(CO)c3)c2C)cc1 |
| 94 to 96 °C | CC(=NOCCO)c1ccc2ccccc2c1 |
| 234 to 236 °C | C/C(=C\c1ccc(C(=O)O)cc1)c1ccc2c(c1)C(C)(C)C=CC2(C)C |
| 236 to 238 °C | Cc1ccccc1-c1cccc2c1CNC(=O)N2c1ccccc1 |
| 218 to 220 °C | Cc1cccc(C(=O)NCc2cccc3c2C(=O)N(C2CCC(=O)NC2=O)C3=O)c1 (stereo not drawn) |
| 124 to 125 °C | Oc1ccc(-c2nn(C3CCC3)c3c(C(F)(F)F)cccc23)c(O)c1 |
| 132 °C | CCOC(=O)c1ccc(OCCC2CCN(c3ccc(F)nn3)CC2)cc1 |
| 212 to 214 °C | COc1ccc(CNn2c(=O)ccc3cnc(S(C)(=O)=O)nc32)cc1Cl |
| 189 °C | CC(=O)OCCn1c(=O)c(C#N)c(N2CCN(C(=O)c3cccs3)CC2)c2cccnc21 |
| 92 to 94 °C | O=C(O)COc1ccc(SCc2cc(-c3ccc(Cl)cc3)no2)c2c1CCC2 |
| 296 to 298 °C | O=C(NCc1ccc(Cl)cc1)c1nnc2ccc(CO)cc2c1O |
| 113 to 114 °C | CC(C)(C)c1cc(CCc2ccccc2NC(=O)N2CCCCC2CCOCc2ccccc2)cc(C(C)(C)C)c1O (stereo not drawn) |
| 127 to 129 °C | CC(C)CC(=O)CNC(=O)c1ccc(Cl)cc1 |
| 90 to 91 °C | CCOC(=O)c1ccc(/C=C(\C)c2ccc3c(c2)C(C)(C)CCC3(C)C)cc1 |
| 250 to 252 °C | CC1(C)CCC(C)(C)c2nc3c(nc21)CCc1c(-c2ccc(C(=O)O)cc2)nn(Cc2cccnc2)c1-3 |
| 181 to 183 °C | CN1c2ccccc2N(C(=O)c2ccccc2)C(=O)c2cccnc21 |
| 216 to 217 °C | COc1nccc(Oc2ccc(NC(=O)c3cc(F)cc(N4CCOCC4)c3)c3ccccc23)n1 |
| 230 °C | Cn1cncc1C(O)(c1ccc([N+](=O)[O-])cc1)c1ccc2c(c1)c(-c1cccc(Cl)c1)cc(=O)n2C (stereo not drawn) |
| 79 to 83 °C | CCOC(=O)/C=C/c1ccc(OCC(C)(C)O)cc1Oc1ncc(C(F)(F)F)cc1Cl |
| 251 to 252 °C | COc1ccccc1Cc1cccc(-c2ncc3c(n2)CC(C)(C)CC3)n1 |
| 84 to 84.5 °C | COc1cc(OC)cc(-c2ncn(-c3ccc(C(F)(F)F)cc3)c2-c2ccc(N(C)C)cc2)c1 |
| 195 to 197 °C | O=C1N(Cc2ccccn2)c2ccccc2C12COc1cc3c(c(-c4ccoc4)c12)CCO3 (stereo not drawn) |
| 59 to 62 °C | CN(C)CCCNc1ncc2c(n1)-c1ccccc1C(c1ccc(Cl)c(Cl)c1)C2 (stereo not drawn) |
| 95.8 to 97.5 °C | COc1ccc(-c2nnn(-c3ccc(C(F)(F)F)cc3F)c2Cl)c(Cl)c1 |
| 169 to 171 °C | CCCCc1ncc(/C=C(\Cc2cccs2)C(=O)O)n1Cc1ccc(CC(=O)O)cc1 |

| melting point | SMILES |
| --- | --- |
| 82 to 83 °C | COc1ccc(C2CCc3ccccc3O2)cc1 (stereo not drawn) |
| 246 to 247 °C | C[C@@H](n1cnc2cc(-c3ccc(C=NNO)cc3)sc2c1=O)[C@](O)(Cn1cncn1)c1ccc(F)cc1F |
| 165 to 167 °C | CCCc1nn(C)c2c1N=C(c1cc(CCC(=O)O)ccc1OCC)NC2 |
| 145 to 146 °C | O=C(NCCO)c1csc(-c2cccc([N+](=O)[O-])c2)n1 |
| 122 to 123 °C | O=C(NCCCCOc1ccc(-n2ccnc2)cc1)c1ccc(F)cc1 |
| 112 to 115 °C | CCOC(=O)CCC(=O)c1cccc(C(=O)c2ccc(Cl)cc2)c1N |
| 155 to 157 °C | CCOC(=O)c1ccc(NC2(C(N)=O)CCCCC2)cc1 |
| 213 to 216 °C | FC(F)(F)Oc1ccc(-n2cnc(-c3ccc(/C=N/NC(=S)Nc4ccccc4C4CCCC4)cc3)n2)cc1 |
| 229 to 230 °C | Nc1c2c(nc3ccc(F)cc13)CCCC2 |
| 172 to 173 °C | CCN1c2ncc(COc3ccccc3O)cc2C(=O)N(C)c2ccc(Cl)nc21 |
| 94 to 95 °C | COC(=O)c1ccc(CCNCC(O)c2ccccc2Cl)cc1 (stereo not drawn) |
| 273 to 275 °C | Nc1nc2n(c(=O)c1N=O)CCN2Cc1ccc(Cl)cc1 |
| 179 to 180 °C | CCCCCC(CC(=O)Nc1cc(C(N)=O)ccc1C(C)(C)C)c1cc(C)c(OC)cc1OC (stereo not drawn) |
| 202 to 204 °C | CCCc1c(SCCCOc2ccc3c(=O)cc(C(=O)O)oc3c2CCC)ccc(C(C)=O)c1N |
| 254 to 256 °C | CC(=O)Nc1ccc(F)c(-c2ccncc2)n1 |
| 78 to 80 °C | O=C(CC1CCCCC1=O)c1ccc(Br)cc1 (stereo not drawn) |
| 227 to 228 °C | N#Cc1cc(C(=O)NNC(=O)c2occc2-c2cccc(Oc3ccccc3)c2)ccc1O |
| 211 to 212 °C | O=C(c1ccc(C(F)(F)F)cc1)N1Cc2c(-c3ccc(F)cc3)ncn2-c2ccccc21 |
| 105 to 107 °C | COc1ccc2ccccc2c1-c1c(C)c2c(c(C)c1P(=O)(c1ccccc1)c1ccccc1)COC2 |
| 125 to 126 °C | CC(=NOCc1ccc2nonc2c1)c1ccc(O)c(F)c1 |
| 118 to 121 °C | Nc1cc(Sc2ccc(Cl)cc2)nc(-c2ccccc2)n1 |
| 132 to 133 °C | O=C(NCC(=O)c1ccco1)c1ccccc1 |
| 144 to 146 °C | COc1ccc(CC(NC(C)=O)C(=O)O)cc1 (racemic) |
| 203 to 205 °C | CCN1CCCCC1CNS(=O)(=O)c1ccc(Nc2ccnc3cc(Cl)ccc23)cc1 (stereo not drawn) |
| 108 to 109 °C | OCc1cc2ccccc2c(-c2ccnc(Br)c2)c1CO |
| 94 to 97 °C | Cc1cc(-c2ccc(C(F)(F)F)cc2)nc(S(C)(=O)=O)n1 |
| 65 to 66 °C | ClCCCn1ncc2cc(OCc3ccccc3)ccc21 |
